Test results from US7713994B2 (Wyeth LLC, priority 2005, dated 2010).
pIC50: −log10 of the molar value. Where two headings read alike, the source gives them in different places.

Key:
LoVo = assay: Cytotoxicity assay (SRB), LoVo; assay type: cell-based; settings: Homo sapiens, LoVo, 72 h, LoVo cells, SRB, read-out: In Vitro Cellular Activity IC50 LOVO
Method in brief: (§1)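 Cells seeded overnight at 37 °C, 7% CO2 (BT474 12000, HCT-116 4000, LoVo and MCF-7 6000 cells/well) in RPMI 1640 with 5% FBS, then exposed to compound dilutions for 3 days (BT474 6 days). Survival versus untreated controls by TCA fixation and SRB staining, absorbance 540 nm.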

cyclin D1/cdk 4 enzyme = target: T1, cyclin D1/cdk 4 enzyme (Homo sapiens, UniProt P11802); assay: CDK4 ELISA kinase assay (phospho-Rb ser 795 detection); assay type: biochemical
T1 construct: made in house; host or cells: Sf9 insect cells, recombinant baculovirus
Method in brief: (§2)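 GST-Rb C-terminal fragment coated on plates; partially purified Sf9-expressed cyclin D1/CDK4, cyclin E/CDK2 or cyclin B/CDK1 with 200 μM ATP, pH 7.5 HEPES/MgCl2 buffer, 1 h at 30 °C; screen compound final 10 μg/ml. Phospho-Rb Ser795 detected by antibody ELISA (TMB, A450); % of control, IC50 from background-subtracted inhibition curves.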

cyclin B/CDK1 enzyme = target: T2, cyclin B/CDK1 enzyme (Homo sapiens, UniProt P06493); assay: CDK1 ELISA kinase assay (phospho-Rb ser 795 detection); assay type: biochemical
T2 construct: purchased New England BioLabs; host or cells: Sf9 insect cells, recombinant baculovirus
Method in brief: as §2

BT474 = assay: Cytotoxicity assay (SRB), BT474; assay type: cell-based
Method in brief: as §1

MCF-7 = assay: Cytotoxicity assay (SRB), MCF-7; assay type: cell-based; settings: Homo sapiens, MCF7, 72 h, MCF-7 cells, SRB, read-out: In Vitro Cellular Activity IC50 MCF-7
Method in brief: as §1

cyclin E/CDK2 enzyme = target: T3, cyclin E/CDK2 enzyme (Homo sapiens, UniProt P24941); assay: CDK2 ELISA kinase assay (phospho-Rb ser 795 detection); assay type: biochemical
T3 construct: made in house; host or cells: Sf9 insect cells, recombinant baculovirus
Method in brief: as §2

HCT-116 = assay: Cytotoxicity assay (SRB), HCT-116; assay type: cell-based; settings: Homo sapiens, HCT-116, 72 h, HCT116 cells, SRB, read-out: In Vitro Cellular Activity IC50 HCT116
Method in brief: as §1

[1] = In Vitro Enzyme Assays, 200 μM ATP, read-out: CDK4 IC50
[2] = In Vitro Enzyme Assays, read-out: CDK1 IC50
[3] = Homo sapiens, BT-474, 144 h, BT474 cells, SRB, 6 days; read-out: In Vitro Cellular Activity IC50 BT474
[4] = In Vitro Enzyme Assays, read-out: CDK2 IC50
[5] = Homo sapiens, BT-474, 144 h, BT474 cells, 6 days, SRB; read-out: In Vitro Cellular Activity IC50 BT474
[6] = In Vitro Enzyme Assay, cyclin D1/cdk 4, read-out: CDK4 IC50
[7] = In Vitro Enzyme Assay, cyclin B/CDK1, read-out: CDK1 IC50
[8] = In Vitro Enzyme Assay, cyclin E/CDK2, read-out: CDK2 IC50

T1 sequence (P11802 whole entry, species assumed): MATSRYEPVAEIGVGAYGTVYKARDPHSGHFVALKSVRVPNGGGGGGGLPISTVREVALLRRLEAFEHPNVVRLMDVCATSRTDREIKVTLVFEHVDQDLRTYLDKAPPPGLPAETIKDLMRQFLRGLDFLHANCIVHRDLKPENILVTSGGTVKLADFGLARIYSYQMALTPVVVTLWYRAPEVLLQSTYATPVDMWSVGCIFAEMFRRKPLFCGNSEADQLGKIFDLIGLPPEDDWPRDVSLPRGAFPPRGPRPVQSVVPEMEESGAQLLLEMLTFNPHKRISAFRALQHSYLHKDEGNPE
T1 sequence (P24385 whole entry partner, species assumed): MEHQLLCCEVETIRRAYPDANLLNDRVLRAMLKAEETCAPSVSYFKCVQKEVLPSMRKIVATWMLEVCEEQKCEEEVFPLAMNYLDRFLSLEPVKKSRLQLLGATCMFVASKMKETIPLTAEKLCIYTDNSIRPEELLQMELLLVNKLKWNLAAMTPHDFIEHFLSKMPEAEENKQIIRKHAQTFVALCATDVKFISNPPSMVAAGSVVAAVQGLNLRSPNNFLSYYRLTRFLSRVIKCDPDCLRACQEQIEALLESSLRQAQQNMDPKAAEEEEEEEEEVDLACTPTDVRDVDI
T2 sequence (P06493 whole entry): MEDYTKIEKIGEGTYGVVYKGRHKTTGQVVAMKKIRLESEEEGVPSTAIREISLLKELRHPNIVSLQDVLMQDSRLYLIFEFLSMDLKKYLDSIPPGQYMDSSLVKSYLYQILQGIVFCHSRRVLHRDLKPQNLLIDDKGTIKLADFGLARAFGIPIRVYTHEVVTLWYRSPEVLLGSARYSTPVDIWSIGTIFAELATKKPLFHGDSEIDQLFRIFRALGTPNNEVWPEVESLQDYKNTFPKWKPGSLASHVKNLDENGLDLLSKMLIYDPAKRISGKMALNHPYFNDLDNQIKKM
T2 sequence (P14635 whole entry partner): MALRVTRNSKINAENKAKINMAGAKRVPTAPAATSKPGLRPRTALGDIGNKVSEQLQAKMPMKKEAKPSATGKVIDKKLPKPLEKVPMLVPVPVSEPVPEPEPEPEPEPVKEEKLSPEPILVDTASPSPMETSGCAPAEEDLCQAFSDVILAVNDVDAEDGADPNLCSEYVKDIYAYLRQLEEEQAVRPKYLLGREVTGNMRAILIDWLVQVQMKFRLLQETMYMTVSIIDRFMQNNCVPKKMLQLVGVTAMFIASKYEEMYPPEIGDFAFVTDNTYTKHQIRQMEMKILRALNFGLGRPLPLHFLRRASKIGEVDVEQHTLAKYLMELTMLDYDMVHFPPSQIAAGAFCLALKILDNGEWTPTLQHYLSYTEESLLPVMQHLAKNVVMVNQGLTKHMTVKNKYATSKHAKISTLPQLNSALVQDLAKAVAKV

Row | SMILES | pIC50 (LoVo; three days) | pIC50 (cyclin D1/cdk 4 enzyme; [1]) | pIC50 (cyclin B/CDK1 enzyme; [2]) | pIC50 (BT474; [3]) | pIC50 (MCF-7; three days) | melting point | pIC50 (cyclin E/CDK2 enzyme; [4]) | pIC50 (HCT-116; three days) | pIC50 (LoVo; 3 days) | pIC50 (BT474; [5]) | pIC50 (MCF-7; 3 days) | pIC50 (HCT-116; 3 days) | pIC50 (cyclin D1/cdk 4 enzyme; [6]) | pIC50 (cyclin B/CDK1 enzyme; [7]) | pIC50 (cyclin E/CDK2 enzyme; [8])
1 | C[C@@H]1CN(c2c(F)cc(N/C=C3\C(=O)NC(=O)c4ccc(-c5ccsc5)cc43)cc2F)C[C@H](C)N1 [Example 383, (4Z)-4-[({4-[(3R,5S)-3,5-Dimethylpiperazin-1-yl]-3,5-difluorophenyl}amino)methylene]-6-thien-3-ylisoquinoline-1,3(2H,4H)-dione] | 5.59 | 6.35 | 4.84 | 5.89 | 5.68 | 195 to 196 °C | 4.59 | 6.08 |  |  |  |  |  |  | 
2 | C[C@@H]1CN(c2ccc(N/C=C3\C(=O)NC(=O)c4ccc(Br)cc43)cc2C(F)(F)F)C[C@H](C)N1 [Example 372, (4Z)-6-Bromo-4-({[4-[(3R,5S)-3,5-dimethylpiperazin-1-yl]-3-(trifluoromethyl)phenyl]amino}methylene)isoquinoline-1,3(2H,4H)-dione] | 5.85 | < 4.30 | < 4.30 | 5.54 | 5.49 | 224 to 225 °C | 4.69 | 5.92 |  |  |  |  |  |  | 
3 | CCCOc1ccc(CN/C=C2\C(=O)N(O)C(=O)c3ccccc32)cc1O [Example 230, 2-Hydroxy-4-[(3-hydroxy-4-propoxy-benzylamino)-methylene]-4H-isoquinoline-1,3-dione] | 5.42 | 4.56 | < 4.30 | 5.19 | 5.51 | 176 to 178 °C | 4.42 | 5.68 |  |  |  |  |  |  | 
4 | CO[C@H]1CCN(Cc2ccc(N/C=C3\C(=O)NC(=O)c4ccc(-c5ccc(F)cc5)cc43)cc2)C1 [Example 265, (4Z)-6-(4-Fluorophenyl)-4-{[(4-{[(3S)-3-methoxypyrrolidin-1-yl]methyl}phenyl)amino]methylene}isoquinoline-1,3(2H,4H)-dione] | 5.55 | 6.52 | < 4.30 | 5.77 | 5.85 | 145 to 146 °C | < 4.30 | 5.70 |  |  |  |  |  |  | 
5 | CN1CCN(c2ccc(N/C=C3\C(=O)NC(=O)c4ccc(-n5cccc5)cc43)cc2F)CC1 [Example 328, (4Z)-4-({[3-Fluoro-4-(4-methylpiperazin-1-yl)phenyl]amino}methylene)-6-(1H-pyrrol-1-yl)isoquinoline-1,3(2H,4H)-dione] | 5.06 | 6.11 | < 4.30 | 5.80 | 5.72 | 206 to 207 °C | < 4.30 | 5.62 |  |  |  |  |  |  | 
6 | CCCOc1ccc(CNC=C2C(=O)NC(=O)c3ccc(-n4cccc4)cc32)cc1O [Example 278, 4-[(3-Hydroxy-4-propoxy-benzylamino)-methylene]-6-pyrrol-1-yl-4H-isoquinoline-1,3-dione] | 5.33 | 7.52 | < 4.30 | 5.30 | 5.20 | 215 to 216 °C (dec.) | < 4.30 | 5.54 |  |  |  |  |  |  | 
7 | O=C1NC(=O)c2ccc(I)cc2/C1=C/Nc1ccc(CN2CCCCC2CO)cc1 (centres unmarked) [Example 439, (4Z)-4-{[(4-{[2-(Hydroxymethyl)piperidin-1-yl]methyl}phenyl)amino]methylene}-6-iodoisoquinoline-1,3(2H,4H)-dione] |  | 6.07 | < 4.30 |  |  | 205 to 206 °C | < 4.30 |  | 5.60 | 6.42 | 6.12 | 5.46 |  |  | 
8 | CN1CCN(c2ccc(N/C=C3\C(=O)NC(=O)c4ccc(I)cc43)cc2F)CC1 [Example 295, (4Z)-4-({[3-Fluoro-4-(4-methylpiperazin-1-yl)phenyl]amino}methylene)-6-iodoisoquinoline-1,3(2H,4H)-dione] | 5.43 | 5.82 | < 4.30 | 5.51 | 5.74 | 211 to 212 °C | < 4.30 | 5.51 |  |  |  |  |  |  | 
9 | COc1ccc(CN/C=C2\C(=O)NC(=O)c3ccc(NS(=O)(=O)c4ccccc4)cc32)cc1O [Example 196, N-((4Z)-4-{[(3-Hydroxy-4-methoxybenzyl)amino]methylene}-1,3-dioxo-1,2,3,4-′tetrahydroisoquinolin-6-yl)benzenesulfonamide] | 4.43 | 5.96 | < 4.30 | 4.43 | 4.42 | 245 to 246 °C | 4.39 | 4.46 |  |  |  |  |  |  | 
10 | CN1CCCC1c1ccc(N/C=C2\C(=O)NC(=O)c3ccc(I)cc32)nc1 (centres unmarked) [Example 460, (Z)-6-Iodo-4-((5-(1-methylpyrrolidin-2-yl)pyridin-2-ylamino)methylene)isoquinoline-1,3(2H,4H)-dione] |  |  |  |  |  | 174 to 206 °C (dec.) |  |  | 5.03 | 5.00 | 4.99 | 5.08 | 4.74 | < 4.30 | < 4.30
11 | O=C1NC(=O)c2ccc(I)cc2/C1=C/NCc1ccc(-n2cccc2)c(O)c1 [Example 514, (4Z)-4-({[3-Hydroxy-4-(1H-pyrrol-1-yl)benzyl]amino}methylene)-6-iodoisoquinoline-1,3(2H,4H)-dione] |  |  |  |  |  | 230 to 231 °C |  |  | 6.13 | 6.23 | 5.65 | 5.98 | 7.22 | < 4.30 | 4.80
12 | COC[C@@H]1CCCN1Cc1ccc(N/C=C2\C(=O)NC(=O)c3ccc(-c4ccc(F)cc4)cc32)cc1 [Example 299, (4Z)-6-(4-Fluorophenyl)-4-{[(4-{[(2S)-2-(methoxymethyl)pyrrolidin-1-yl]methyl}phenyl)amino]methylene}isoquinoline-1,3(2H,4H)-dione] | 5.11 | 6.72 | < 4.30 | 5.70 | 6.10 | 162 to 163 °C | < 4.30 | 5.52 |  |  |  |  |  |  | 
13 | O=C1NC(=O)c2ccc(-c3ccc(F)cc3)cc2/C1=C/Nc1ccc(CN2CCC(CCO)CC2)cc1 [Example 482, (4Z)-6-(4-Fluorophenyl)-4-{[(4-{[4-(2-hydroxyethyl)piperidin-1-yl]methyl}phenyl)amino]methylene}isoquinoline-1,3(2H,4H)-dione] |  |  |  |  |  | 202 to 203 °C |  |  | 5.57 | 5.89 | 6.08 | 5.60 | 6.92 | < 4.30 | < 4.30
14 | COc1coc(CNC=C2C(=O)NC(=O)c3ccc(Br)cc32)cc1=O [Example 316, 6-Bromo-4-{[(5-methoxy-4-oxo-4H-pyran-2-ylmethyl)-amino]-methylene}-4H-isoquinoline-1,3-dione] | 5.24 | 5.89 | < 4.30 | 5.31 | 5.05 | 259 to 261 °C (dec.) | 4.77 | 5.05 |  |  |  |  |  |  | 
15 | CN1CCN(c2ccc(N/C=C3\C(=O)NC(=O)c4ccc(Br)cc43)nn2)CC1 [Example 477, (4Z)-6-Bromo-4-({[6-(4-methylpiperazin-1-yl)pyridazin-3-yl]amino}methylene)isoquinoline-1,3(2H,4H)-dione] |  |  |  |  |  | 245 to 246 °C |  |  | 5.41 | 5.39 | 5.64 | 5.80 | 4.86 | 4.62 | 4.39
16 | CO[C@@H]1CCN(Cc2ccc(N/C=C3\C(=O)NC(=O)c4ccc(Br)cc43)cc2)C1 [Example 266, (4Z)-6-Bromo-4-{[(4-{[(3R)-3-methoxypyrrolidin-1-yl]methyl}phenyl)amino]methylene}isoquinoline-1,3(2H,4H)-dione] | 5.08 | 5.72 | < 4.30 | 5.04 | 5.40 | 132 to 133 °C | < 4.30 | 5.21 |  |  |  |  |  |  | 
